For one experiment, the target named is T1, hM1 (Homo sapiens, UniProt P11229).
T1 sequence (P11229 1-460): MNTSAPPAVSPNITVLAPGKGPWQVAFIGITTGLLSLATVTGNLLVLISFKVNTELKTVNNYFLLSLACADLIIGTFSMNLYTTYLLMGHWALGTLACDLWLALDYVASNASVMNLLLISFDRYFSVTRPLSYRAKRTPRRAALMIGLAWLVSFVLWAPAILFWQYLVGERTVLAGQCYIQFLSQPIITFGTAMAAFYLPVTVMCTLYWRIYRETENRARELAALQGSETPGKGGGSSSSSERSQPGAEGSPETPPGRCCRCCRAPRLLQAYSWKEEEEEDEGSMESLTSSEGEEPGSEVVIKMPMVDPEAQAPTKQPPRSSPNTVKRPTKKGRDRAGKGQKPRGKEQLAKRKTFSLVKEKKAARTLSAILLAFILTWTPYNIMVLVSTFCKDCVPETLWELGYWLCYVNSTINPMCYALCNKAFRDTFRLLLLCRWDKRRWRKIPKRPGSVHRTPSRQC
In words: FLIPR Ca2+ functional assay, CHO K1 cells stably expressing hM1. Type of experiment: cell-based.

The next experiment deals with hM3 (Homo sapiens, UniProt P20309). Nature of the experiment: FLIPR Ca2+ functional assay, CHO K1 cells stably expressing hM3. Type of experiment: cell-based.
In experiment [1] the test system is spontaneous firing rates of CA1 neurons.
The next experiment deals with T2, hM2 (Homo sapiens, UniProt P08172).
T2 sequence (P08172 1-466): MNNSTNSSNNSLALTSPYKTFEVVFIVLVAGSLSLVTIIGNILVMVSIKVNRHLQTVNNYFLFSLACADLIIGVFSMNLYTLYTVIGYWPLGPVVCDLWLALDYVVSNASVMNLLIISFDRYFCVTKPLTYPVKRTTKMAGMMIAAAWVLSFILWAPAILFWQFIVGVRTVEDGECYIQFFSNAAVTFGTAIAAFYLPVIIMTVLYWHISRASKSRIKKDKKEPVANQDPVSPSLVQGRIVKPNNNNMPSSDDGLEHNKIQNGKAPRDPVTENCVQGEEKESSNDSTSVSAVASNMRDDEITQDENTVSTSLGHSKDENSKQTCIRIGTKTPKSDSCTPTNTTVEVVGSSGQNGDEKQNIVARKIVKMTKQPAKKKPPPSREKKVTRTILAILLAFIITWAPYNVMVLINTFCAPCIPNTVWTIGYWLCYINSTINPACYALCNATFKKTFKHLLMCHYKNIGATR
In words: GloSensor cAMP functional assay, HEK293 cells stably expressing hM2. Type of experiment: cell-based.

The target in another experiment is T3, hM5 (Homo sapiens, UniProt P08912).
T3 sequence (P08912 1-532): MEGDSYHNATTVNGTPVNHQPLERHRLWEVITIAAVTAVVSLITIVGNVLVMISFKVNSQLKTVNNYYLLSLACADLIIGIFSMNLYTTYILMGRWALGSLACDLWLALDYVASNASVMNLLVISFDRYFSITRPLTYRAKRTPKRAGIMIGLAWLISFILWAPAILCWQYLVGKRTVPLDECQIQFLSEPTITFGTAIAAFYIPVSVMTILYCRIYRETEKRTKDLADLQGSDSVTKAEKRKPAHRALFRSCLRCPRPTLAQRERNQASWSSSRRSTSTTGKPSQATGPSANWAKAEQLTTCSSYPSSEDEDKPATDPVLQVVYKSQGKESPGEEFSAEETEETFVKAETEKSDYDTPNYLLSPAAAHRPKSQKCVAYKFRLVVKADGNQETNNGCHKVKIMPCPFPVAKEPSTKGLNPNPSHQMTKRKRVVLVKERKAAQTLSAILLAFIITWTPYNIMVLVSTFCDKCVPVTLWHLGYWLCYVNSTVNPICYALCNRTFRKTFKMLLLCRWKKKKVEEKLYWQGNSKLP
Nature of the experiment: FLIPR Ca2+ functional assay, CHO K1 cells stably expressing hM5. Type of experiment: cell-based.

In another experiment the target is 5HT2b receptors (Homo sapiens, UniProt P41595). In words: Nonmuscarinic off-target functional activity: 5HT2b antagonism. Type of experiment: cell-based.
The target of another experiment is T4, rat M4 receptor (rM4) (Rattus norvegicus, UniProt P08485).
T4 sequence (P08485 1-478): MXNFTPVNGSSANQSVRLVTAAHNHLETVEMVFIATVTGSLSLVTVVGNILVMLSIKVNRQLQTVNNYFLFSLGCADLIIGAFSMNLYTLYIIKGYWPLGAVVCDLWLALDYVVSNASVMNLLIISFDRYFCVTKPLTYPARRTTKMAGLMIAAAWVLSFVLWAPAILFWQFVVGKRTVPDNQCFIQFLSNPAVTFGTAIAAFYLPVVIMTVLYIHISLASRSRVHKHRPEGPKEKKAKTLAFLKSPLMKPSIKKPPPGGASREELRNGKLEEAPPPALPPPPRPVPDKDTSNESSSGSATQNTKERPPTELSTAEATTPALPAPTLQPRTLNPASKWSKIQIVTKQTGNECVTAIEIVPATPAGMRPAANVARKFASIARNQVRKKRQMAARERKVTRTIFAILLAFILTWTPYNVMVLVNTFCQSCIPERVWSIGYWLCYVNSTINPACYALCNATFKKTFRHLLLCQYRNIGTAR
Nature of the experiment: GloSensor cAMP functional assay, HEK293 cells stably expressing rM4.

In a further experiment the target is T5, hM4 (Homo sapiens, UniProt P08173).
T5 sequence (P08173 1-479): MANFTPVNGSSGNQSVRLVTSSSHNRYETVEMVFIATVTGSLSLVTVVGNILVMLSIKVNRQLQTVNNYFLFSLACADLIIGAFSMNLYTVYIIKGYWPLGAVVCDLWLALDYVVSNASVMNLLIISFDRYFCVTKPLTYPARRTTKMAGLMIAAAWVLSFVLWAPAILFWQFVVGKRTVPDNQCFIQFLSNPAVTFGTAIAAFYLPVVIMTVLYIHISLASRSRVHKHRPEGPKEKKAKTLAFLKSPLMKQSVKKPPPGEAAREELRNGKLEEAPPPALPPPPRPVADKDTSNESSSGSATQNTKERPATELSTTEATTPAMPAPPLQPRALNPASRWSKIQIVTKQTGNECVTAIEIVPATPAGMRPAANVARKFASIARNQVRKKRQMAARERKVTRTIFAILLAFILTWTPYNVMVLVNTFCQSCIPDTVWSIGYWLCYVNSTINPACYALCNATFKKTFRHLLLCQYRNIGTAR
In words: GloSensor cAMP functional assay, HEK293 cells stably expressing hM4. The following applies: for selectivity for hM4 over hM2 (fold shift of PAM EC50): hM2 EC50 versus hM4 EC50, PAM mode.

The subject of a further experiment is CA1 pyramidal neurons. Nature of the experiment: Whole‐cell current step evoked firing of CA1 pyramidal neurons. Type of experiment: cell-based, rat.
The subject of experiment [2] is SC‐evoked EPSCs in CA1 pyramidal neurons. Type of experiment: cell-based, rat.
Experiment [3] relates to TA‐evoked EPSCs in CA1 pyramidal neurons. Type of experiment: cell-based, rat.
In the next experiment the test system is rat M4 receptor. The following applies: ref Chan et al., 2008; cited from earlier work.
The target in experiment [4] is beta‐2 adrenergic receptors (Homo sapiens, UniProt P07550). In words: Nonmuscarinic off-target functional activity: beta-2 adrenergic antagonism. Type of experiment: cell-based.
Experiment [5] relates to putative PV+ CA1 interneurons. Nature of the experiment: Whole‐cell current step evoked firing of putative PV+ CA1 interneurons. Type of experiment: cell-based, rat. The conditions noted are these: 300 nM; n = 4; p = 0.0275.
Experiment [6] has as its system SC‐evoked synaptic field potentials in CA1 of hippocampal slices. In words: Extracellular field potentials evoked by SC stimulation, hippocampal slices. The conditions noted are these: from fitted dose–response curve, Figure 2a.
Where [7] appears, read: 5 μM, end of recordings with PT‐3763, mean ± SEM.

Here are results for ten compounds from publication PMC5573954 (Hippocampus, 2017).

Read-outs that look alike come from different tables or passages of the source. Where only a bound is given, the exact number is not on record here.

Sequence of hM3 (P20309 whole entry): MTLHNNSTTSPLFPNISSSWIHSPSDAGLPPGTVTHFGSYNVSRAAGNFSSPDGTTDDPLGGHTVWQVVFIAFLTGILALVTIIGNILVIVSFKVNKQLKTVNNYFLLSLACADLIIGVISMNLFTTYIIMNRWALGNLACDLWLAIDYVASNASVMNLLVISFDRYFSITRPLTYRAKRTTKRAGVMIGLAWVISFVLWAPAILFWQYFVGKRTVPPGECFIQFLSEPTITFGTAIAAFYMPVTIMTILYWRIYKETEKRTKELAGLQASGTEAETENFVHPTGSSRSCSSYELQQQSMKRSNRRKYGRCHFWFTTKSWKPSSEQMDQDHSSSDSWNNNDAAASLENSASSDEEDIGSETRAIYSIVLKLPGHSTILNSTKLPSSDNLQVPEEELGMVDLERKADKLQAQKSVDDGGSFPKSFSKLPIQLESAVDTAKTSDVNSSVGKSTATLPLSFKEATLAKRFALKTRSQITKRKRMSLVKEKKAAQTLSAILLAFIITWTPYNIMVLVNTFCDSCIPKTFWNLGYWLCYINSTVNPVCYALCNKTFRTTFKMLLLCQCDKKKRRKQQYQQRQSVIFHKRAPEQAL
Sequence of 5HT2b receptors (P41595 whole entry): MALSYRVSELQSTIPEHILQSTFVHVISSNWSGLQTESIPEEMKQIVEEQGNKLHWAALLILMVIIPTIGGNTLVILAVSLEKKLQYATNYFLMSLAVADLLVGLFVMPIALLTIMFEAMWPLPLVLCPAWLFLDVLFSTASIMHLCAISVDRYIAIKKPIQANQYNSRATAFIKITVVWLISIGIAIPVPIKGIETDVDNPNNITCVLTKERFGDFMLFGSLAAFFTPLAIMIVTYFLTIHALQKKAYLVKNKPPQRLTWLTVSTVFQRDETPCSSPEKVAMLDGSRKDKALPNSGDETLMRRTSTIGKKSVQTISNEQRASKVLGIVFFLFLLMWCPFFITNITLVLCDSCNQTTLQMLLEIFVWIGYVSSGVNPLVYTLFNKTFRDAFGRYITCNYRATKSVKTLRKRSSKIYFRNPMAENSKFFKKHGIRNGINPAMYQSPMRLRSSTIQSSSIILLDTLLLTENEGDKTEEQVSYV
Sequence of beta‐2 adrenergic receptors (P07550 whole entry): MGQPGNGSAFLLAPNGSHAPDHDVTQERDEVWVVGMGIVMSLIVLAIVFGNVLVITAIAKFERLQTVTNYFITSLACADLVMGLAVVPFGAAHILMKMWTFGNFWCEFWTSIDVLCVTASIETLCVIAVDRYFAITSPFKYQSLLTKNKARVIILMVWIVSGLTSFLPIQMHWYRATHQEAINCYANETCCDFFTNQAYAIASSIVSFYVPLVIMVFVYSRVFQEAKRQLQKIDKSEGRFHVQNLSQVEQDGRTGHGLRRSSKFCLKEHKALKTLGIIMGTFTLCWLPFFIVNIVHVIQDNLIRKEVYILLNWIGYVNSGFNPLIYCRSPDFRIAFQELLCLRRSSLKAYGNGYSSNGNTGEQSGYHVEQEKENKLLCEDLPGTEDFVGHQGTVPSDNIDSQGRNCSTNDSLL

For the compound `CCOC(=O)N1CCCC(N2CCC(c3cccnc3OC)CC2)CC1` (stereo not shown) [PT‐6950, ethyl 4‐(4‐(2‐methoxypyridin‐3‐yl)piperidin‐1‐yl)azepane‐1‐carboxylate], the EC50 – broadly, the concentration giving half of the maximal effect – on hM1 was 0.312 µM; at hM3 it was above 10 µM; at hM2, 2.88 µM; on hM5, above 10 µM; at rat M4 receptor (rM4), 0.00262 µM. In addition, in experiment [1] (compound alone, mean ± SEM), the “upper z‐score asymptote of normalized spontaneous firing rates” value turned out to be 12.0 ± 16.7. Besides, at 5HT2b receptors, it took 1.26 µM to reach half-maximal inhibition (IC50).

With `Cc1nnc2sc(C(=O)NC3CN(c4cccnc4)C3)c(N)c2c1C` [PT‐1148, 5‐amino‐3,4‐dimethyl‐N‐(1‐(pyridin‐3‐yl)azetidin‐3‐yl)thieno[2,3‐c]pyridazine‐6‐carboxamide], at hM4, the “selectivity for hM4 over hM2 (fold shift of PAM EC50)” value is given as 536 fold. Also, the “upper z‐score asymptote of normalized spontaneous firing rates” value in experiment [1] (in the presence of 20 nM oxotremorine and 1 μM VU0255035, not significant (p = 0.875)) is listed as 3.77 ± 23.9.

`CC(=O)OCC[N+](C)(C)C` [ACh, acetylcholine]: the “ACh EC20” value at hM4 (hM4 cell line) came out at 0.015 µM; on hM3 (hM3 cell line), 0.0008 µM; on hM5 (hM5 cell line) it was 0.002 µM; at rat M4 receptor (rM4) (rM4 cell line) it was 0.0008 µM.

Turning to `O=C(CCNS(=O)(=O)c1cccc2nsnc12)N1CCN(c2ccncc2)CC1` [VU0255035], in experiment [1] (3 μM), the “effect on GSK1034702 induced increase in CA1 firing rates” value was “reversed” and the “effect on oxotremorine induced increase in spontaneous firing rates” value was “partially reversed”.

For the compound `CN1CCN(CC(=O)N2c3ccccc3C(=O)Nc3cccnc32)CC1` [pirenzepine], in the experiment on CA1 pyramidal neurons (3 μM), the “effect on GSK1034702 induced increase in evoked spikes” value is reported as “reversed” and the “effect on GSK1034702 induced reduction of spike frequency accommodation” value is “similarly reversed”. Besides, the “effect on M4 PAM induced reduction of SC‐evoked EPSC amplitude and slope” value in [2] (3 μM, applied after PTX + OXO + M4 PAM) is listed as “reversed”. Moreover, the “effect on GSK1034702 induced increase in CA1 firing rates” value in experiment [1] (3 μM) was “reversed”.

For `N#Cc1cc2[nH]c(=O)c(=O)[nH]c2cc1[N+](=O)[O-]` [CNQX], in experiment [2] (setting [7]), the “CNQX‐induced suppression of SC‐evoked responses” value came to 85.2 ± 4.1%. The “CNQX‐induced suppression of TA‐evoked responses” value in [3] (setting [7]) turned out to be 79.4 ± 4.8%.

`COc1nc2sc(C(=O)NC3CC3)c(N)c2c(C)c1Cl` [LY2033298]: the EC50 amounted to 0.041 µM on hM4 (hM4, PAM mode, in the presence of an EC20 of ACh (15 nM), isoproterenol 50 nM, brackets 95% CI) and 3.28 µM on hM2 (hM2, PAM mode, in the presence of an EC20 of ACh (3 nM), isoproterenol 50 nM, brackets 95% CI). For the same compound, the “potency at the rat M4 receptor compared with the human” value in the experiment on rat M4 receptor is “much weaker”.

On to `Cc1cc(C)c2c(N)c(C(=O)NC3CN(c4cccnc4)C3)sc2n1` [PT‐3763, 3‐amino‐4,6‐dimethyl‐N‐(1‐(pyridin‐3‐yl)azetidin‐3‐yl)thieno[2,3‐b]pyridine‐2‐carboxamide], for which, in experiment [4], the IC50 (commonly the point on the concentration scale where inhibition reaches its midpoint) was determined as 2.99 µM. The “selectivity for hM4 over hM2 (fold shift of PAM EC50)” value on hM4 was found to be 28 fold.

On to `Cc1cc(F)c2[nH]c(=O)n(C3CCN(C4CCOCC4)CC3)c2c1` [GSK1034702], for which the spike frequency accommodation entry in the experiment on CA1 pyramidal neurons (300 nM, 200 pA current injection) is on record as “significantly reduced”. Also, the “number of spikes evoked in response to a 200 pA injected current step” value with CA1 pyramidal neurons (300 nM, p = 0.012 vs baseline) is “increase”. For the same compound, the 50% effective concentration (EC50) at hM1 was 0.027 µM; on hM4, 1.43 µM. Further, the “effect on amplitude, slope, or PPR of EPSCs evoked by SC stimulation” value in experiment [2] (300 nM, 100 μM picrotoxin) is recorded as “no significant effect”. Besides, the “upper z‐score asymptote of normalized spontaneous firing rates” value came out at 56.3 ± 11.9 in experiment [1] (GSK1034702 data set with VU0255035 reversal) and 86.9 ± 13.6 in experiment [1] (GSK1034702 data set with pirenzipine reversal). Moreover, in experiment [5], the “firing rates of interneurons following current step” value is given as “increased firing rates”. In experiment [3] (300 nM, 100 μM picrotoxin), the “effect on amplitude, slope, or PPR of EPSCs evoked by TA stimulation” value was “no significant effect”.

For the compound `O=C1CCCN1CC#CCN1CCCC1` [oxotremorine], the “EC20 of oxotremorine for reduction of SC‐evoked field potentials” value in experiment [6] was 0.02 µM. Besides, in experiment [1] (compound alone, mean ± SEM), the “upper z‐score asymptote of normalized spontaneous firing rates” value was 108.2 ± 6.3.
